Laboratory results published in US12643871B2, “Aryl formamide compound containing chiral sulfur oxide or salt thereof, preparation method, herbicidal composition and use thereof” (Qingdao Kingagroot Chemical Compound Co., Ltd., priority 2019, dated 2026).

Assays:
[1] = test system: Echinochloa crusgali; assay: Weeding effect in post-emergence stage; assay type: in vivo; conditions: 250 g/ha; 2 leaf stage; 15 days after application; fresh weight control rate
From the text: (§1) The activity level criteria for harmful plant damage (i.e., growth control rate) are as follows: • Level 5: growth control rate is above 85%; • Level 4: growth control rate is greater than or equal to 60% and less than 85%; • Level 3: growth control rate is greater than or equal to 40% and less than 60%; • Level 2: growth control rate is greater than or equal to 20% and less than 40%; • Level 1: growth control rate is greater than or equal to 5% and less than 20%; • Level 0: growth control rate is less than 5%.
(§2) The above growth control rates are fresh weight control rates.
(§3) Experiment on weeding effect in post-emergence stage: monocotyledonous and dicotyledonous weed seeds (Descurainia sophia, Capsella bursa-pastoris, Galium aparine, Stellaria media, Lithospermum arvense, Rorippa indica, Alopecurus aequalis, Beckmannia syzigachne, Sclerochloa dura, Phleum paniculatum, Bromus japonicus, Aegilops tauschii, Phalaris arundinacea, Amaranthus retroflexus, Chenopodiaceae, Commelina communis, Sonchus arvensis, convolvulus arvensis, Cirsium setosum, Solanum nigrum, Acalypha australis, Digitaria sanguinalis, Echinochloa crusgalli, Setaria viridis, Setaria glauca, Leptochloa chinensis, Monochoria vaginalis, Sagittaria trifolia, Scirpus juncoides, Cyperus rotundus, Cyperus iria, Cyperus difformis, Fimbristylis, Portulaca oleracea, Xanthium sibiricum, Pharbitis nil) and major crop seeds (wheat, corn, rice, soybean, cotton, oilseed rape, millet, sorghum, potato, sesame, ricinus) were placed in plastic pots filled with soil, then covered with 0.5-2 cm of soil, allowed to grow in a good greenhouse environment. After 2 weeks of sowing, the test plants were treated in the 2 leaf stage. The tested compounds of the present invention were respectively dissolved in acetone, then added with Tween 80 and 1.5 liter/ha of emulsifiable concentrate of methyl oleate as synergist, diluted with a certain amount of water to obtain a solution with a certain concentration, and sprayed with a spray tower onto the plants. After the application, the plants were cultured for 15 days in the greenhouse, and then the experimental results of the weeding were counted. The doses of the used compounds were 500, 250, 125, 60, 30, 15 g/ha, and the averages were obtained by repeating for three times.

[2] = test system: Amaranthus retroflexus; assay: Weeding effect in post-emergence stage; assay type: in vivo; conditions: 250 g/ha; 2 leaf stage; 15 days after application; fresh weight control rate
From the text: as §1, §2, §3

Row | SMILES | weeding effect in post-emergence stage, activity level (growth control rate), Echinochloa crusgali [1] | weeding effect in post-emergence stage, activity level (growth control rate), Amaranthus retroflexus [2]
1 | Cc1nnc(NC(=O)c2ccc(C(F)(F)F)c([S@+]([O-])CCC(C)(C)C)c2F)o1 [Compound 13] | 5 (Level 5: growth control rate is above 85%) | 5 (Level 5: growth control rate is above 85%)
2 | CCCCCCC[S@@+]([O-])c1c(C(F)(F)F)ccc(C(=O)Nc2nnc(C)o2)c1F [Compound 14] | 5 (Level 5: growth control rate is above 85%) | 5 (Level 5: growth control rate is above 85%)
3 | Cc1nnc(NC(=O)c2ccc(C(F)(F)F)c([S@+]([O-])CCC3CCCCC3)c2F)o1 [Compound 18] | 5 (Level 5: growth control rate is above 85%) | 5 (Level 5: growth control rate is above 85%)
4 | Cc1nnc(NC(=O)c2ccc(C(F)(F)F)c([S+]([O-])C#N)c2F)o1 (centres unmarked) [Compound 51] | 5 (Level 5: growth control rate is above 85%) | 5 (Level 5: growth control rate is above 85%)
5 | Cc1nnc(NC(=O)c2ccc(C(F)(F)F)c([S@@+]([O-])C(=O)c3ccco3)c2F)o1 [Compound 171] | 5 (Level 5: growth control rate is above 85%) | 5 (Level 5: growth control rate is above 85%)
6 | Cc1nnc(NC(=O)c2ccc(C(F)(F)F)c([S@@+]([O-])C(=O)N(C)C)c2F)o1 [Compound 176] | 5 (Level 5: growth control rate is above 85%) | 5 (Level 5: growth control rate is above 85%)
7 | Cc1nnc(NC(=O)c2ccc(C(F)(F)F)c([S@+]([O-])CC(=O)N(C)C)c2F)o1 [Compound 178] | 5 (Level 5: growth control rate is above 85%) | 5 (Level 5: growth control rate is above 85%)
8 | Cc1nnc(NC(=O)c2ccc(C(F)(F)F)c([S@+]([O-])CC=O)c2F)o1 [Compound 191] | 5 (Level 5: growth control rate is above 85%) | 5 (Level 5: growth control rate is above 85%)
9 | Cc1nnc(NC(=O)c2ccc(C(F)(F)F)c([S@+]([O-])CCC=O)c2F)o1 [Compound 192] | 5 (Level 5: growth control rate is above 85%) | 5 (Level 5: growth control rate is above 85%)
10 | CC(=O)C[S@@+]([O-])c1c(C(F)(F)F)ccc(C(=O)Nc2nnc(C)o2)c1F [Compound 193] | 5 (Level 5: growth control rate is above 85%) | 5 (Level 5: growth control rate is above 85%)
11 | COC(=O)C[S@@+]([O-])c1c(C(F)(F)F)ccc(C(=O)Nc2nnc(C)o2)c1F [Compound 196] | 5 (Level 5: growth control rate is above 85%) | 5 (Level 5: growth control rate is above 85%)
12 | Cc1nnc(NC(=O)c2ccc(C(F)(F)F)c([S@+]([O-])CC(=O)OC(C)(C)C)c2F)o1 [Compound 199] | 5 (Level 5: growth control rate is above 85%) | 5 (Level 5: growth control rate is above 85%)
13 | Cc1nnc(NC(=O)c2ccc(C(F)(F)F)c([S@@+]([O-])COC(=O)C(C)(C)C)c2F)o1 [Compound 202] | 5 (Level 5: growth control rate is above 85%) | 5 (Level 5: growth control rate is above 85%)
